Assay results reported in patent publication US20200190073A1, “SUBSTITUTED SUCCINIMIDE DERIVATIVES AS PESTICIDES” (BASF SE, priority 2017, published 2020).
Read-outs that look alike come from different tables or passages of the source.

How the values were obtained:
Assay type in all cases: in vivo
[1] = system: Green Soldier Stink Bug (Nezara viridula); assay: B.11 Green soldier stink bug, sprayed soybean pods; conditions: 120 h, read-out: mortality in comparison with untreated controls
Method in brief: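 Ten late 3rd-instar N. viridula on soybean pods in Petri dishes were sprayed with compound in 1:1 water:acetone plus 0.01% surfactant. Dishes were held at about 25° C. Percent mortality was scored after 5 days.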

[2] = system: Vetch Aphid (Megoura viciae); assay: B.3 Vetch aphid, broad bean leaf disks; conditions: foliar, 120 h, read-out: mortality in comparison with untreated controls
Method in brief: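 Broad bean leaf disks sprayed with compounds in 25% DMSO/water at various concentrations, two replicates, then air-dried and infested with 5-8 adult Megoura viciae (contact/systemic exposure). After 5 days at about 23±1 °C and 50±5% RH, mortality and fecundity scored visually.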

[3] = system: Rice Green Leafhopper (Nephotettix virescens); assay: B.8 Rice green leafhopper, sprayed rice seedlings; conditions: read-out: mortality in comparison with untreated controls
Method in brief: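 Potted rice seedlings, washed 24 h earlier, were sprayed with 5-6 ml of compound in 1:1 acetone:water plus 0.01% surfactant. Once dry, they were caged and infested with 10 adults, then held at about 28-29° C and 50-60% RH. Percent mortality was scored at 72 h.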

[4] = system: Orchid Thrips (Dichromothrips Corbetti); assay: B.7 Orchid thrips, floral immersion; conditions: read-out: mortality in comparison with untreated controls
Method in brief: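 Orchid flower petals dipped in compound diluted in 1:1 acetone:water plus 0.01% v/v Kinetic HV, dried, then enclosed with about 20 adult lab-colony thrips. Held under continuous light at about 28 °C; percent mortality recorded 72 hours after treatment.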

[5] = system: Diamond back moth (Plutella xylostella); assay: B.1 Diamond back moth, cabbage leaf dip; conditions: foliar, read-out: mortality in comparison with untreated controls
Method in brief: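 Cabbage leaves were dipped in compound in 1:1 water:acetone with 0.01% surfactant, air-dried and infested with ten 3rd-instar larvae. Mortality and feeding damage (0–100% scale) were scored 72 h after treatment.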

[6] = system: Neotropical Brown Stink Bug (Euschistus heros); assay: B.12 Neotropical brown stink bug, dipped pole bean; conditions: 120 h, read-out: mortality in comparison with untreated controls
Method in brief: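 Contact assay: pole bean sections dipped in compound in 50% acetone/water, air-dried, then exposed to 5 adult Euschistus heros per beaker, eight replicates. Held 5 days at 23±1 °C, 50±5% RH before visual mortality scoring.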

[7] = system: Red Spider Mite (Tetranychus kanzawai); assay: B.9 Red spider mite, sprayed cowpea beans; conditions: read-out: mortality in comparison with untreated controls
Method in brief: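 Potted cowpea beans aged 4-5 days were sprayed with compound in 1:1 water:acetone plus 0.01% surfactant, air dried, then infested with ≥30 mites. Kept at about 25-27° C and 50-60% relative humidity; percent mortality scored 72 h after treatment.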

[8] = system: Southern Armyworm (Spodoptera eridania), 2nd Instar Larvae; assay: CE.7 Southern armyworm, 2nd instar larvae, comparative test; conditions: foliar, 96 h, leaf dip, at 4 days, read-out: % mortality in comparison to untreated controls
Procedure: The tables show % mortality in comparison to untreated controls.
CE.7 Southern Armyworm (Spodoptera eridania), 2nd Instar Larvae
The active compounds were formulated in 50:50 acetone:water (vol) and 100 ppm Kinetica™ surfactant.
A pair of first true leaves of Sieva lima bean was dipped into the test solution and allowed to dry. The leaves were then placed in a plastic perforated zip enclosure bag and ten 2nd instar larvae were added. At 4 days, observations were made of mortality and reduced feeding.

[9] = system: Boll Weevil (Anthonomus grandis); assay: B.5 Boll weevil, insect diet with eggs; conditions: 120 h, read-out: mortality in comparison with untreated controls
Method in brief: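 Compounds in 75% water/25% DMSO sprayed at several concentrations (5 μl, two replicates) onto insect diet in 96-well microtiter plates holding 5-10 A. grandis eggs. After 5 days at about 25±1° C and 75±5% relative humidity, egg and larval mortality scored visually.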

Row | Structure (SMILES) | mortality at 300 ppm [1] [%] | mortality at 2500 ppm [2] [%] | mortality at 300 ppm ([3]; 72 h) [%] | mortality at 300 ppm ([4]; Thrips, 72 h) [%] | mortality at 300 ppm ([5]; 72 h) [%] | mortality at 500 ppm [6] [%] | mortality at 300 ppm ([7]; 72 h) [%] | mortality at 3 ppm [8] [%] | mortality at 2500 ppm [9] [%] | mortality at 300 ppm ([1]; 300 ppm, late 3rd instar, after 5 days) [%] | mortality at 2500 ppm ([2]; 2500 ppm, sprayed leaf disks, 5 days) [%] | mortality at 300 ppm ([3]; 300 ppm, adults on sprayed rice seedlings, after 72 hours) [%] | mortality at 300 ppm ([4]; 300 ppm, adult thrips, 72 hours after treatment) [%] | mortality at 300 ppm ([5]; 300 ppm, cabbage leaf dip, 3rd instar larvae, 72 hours after treatment) [%] | mortality at 300 ppm ([7]; 300 ppm, 72 hours after treatment) [%] | mortality at 2500 ppm ([9]; 2500 ppm, egg and larval mortality, 5 days) [%]
1 | CN1C(=O)CC(NC(=O)c2ccc(C3=NOC(c4cc(Cl)c(F)c(Cl)c4)(C(F)(F)F)C3)cc2Cl)C1=O (centres unmarked) [Compound I-1-2, 2-Chloro-4-[5-(3,5-dichloro-4-fluoro-phenyl)-5-(trifluoromethyl)-4H-isoxazol-3-yl]-N-(1-methyl-2,5-dioxo-pyrrolidin-3-yl)benzamide] | > 75 | > 75 | > 75 | > 75 | > 75 | > 75 | > 75 | 100 | > 75 | – | – | – | – | – | – | –
2 | CCN1C(=O)CC(NC(=O)c2ccc(C3=NOC(c4cc(Cl)c(F)c(Cl)c4)(C(F)(F)F)C3)cc2Cl)C1=O (centres unmarked) [Compound I-1-3] | > 75 | > 75 | > 75 | > 75 | > 75 | – | > 75 | 100 | > 75 | – | – | – | – | – | – | –
3 | CN1C(=O)CC(NC(=O)c2ccc(C3=NOC(c4cc(Cl)c(F)c(Cl)c4)(C(F)(F)F)C3)c3c2CCC3)C1=O (centres unmarked) [Compound I-1-10] | > 75 | > 75 | > 75 | > 75 | > 75 | > 75 | > 75 | 100 | > 75 | – | – | – | – | – | – | –
4 | CN1C(=O)C[C@@H](NC(=O)c2ccc(C3=NOC(c4cc(Cl)c(F)c(Cl)c4)(C(F)(F)F)C3)cc2Cl)C1=O (some centres unmarked) [Compound I-1-13] | > 75 | > 75 | > 75 | > 75 | > 75 | > 75 | > 75 | – | > 75 | – | – | – | – | – | – | –
5 | CCN1C(=O)C[C@@H](NC(=O)c2ccc(C3=NOC(c4ccc(F)c(Cl)c4)(C(F)(F)F)C3)cc2Cl)C1=O (some centres unmarked) [Compound I-1-53] | – | – | – | – | – | – | – | – | – | > 75 | > 75 | > 75 | > 75 | > 75 | > 75 | > 75
